# Results: BindingDB's records for doi:10.1016/j.ejmech.2018.03.040 (University of Torino, 2018)
# Biological target: Prostaglandin G/H synthase 2 (COX2, PTGS2) (Homo sapiens) (UniProt P35354)
# Test: Inhibition of human COX2 assessed as reduction in PGF2alpha production by ELISA
# Sequence of Prostaglandin G/H synthase 2 (COX2, PTGS2) (Homo sapiens) (P35354 whole entry, looked up): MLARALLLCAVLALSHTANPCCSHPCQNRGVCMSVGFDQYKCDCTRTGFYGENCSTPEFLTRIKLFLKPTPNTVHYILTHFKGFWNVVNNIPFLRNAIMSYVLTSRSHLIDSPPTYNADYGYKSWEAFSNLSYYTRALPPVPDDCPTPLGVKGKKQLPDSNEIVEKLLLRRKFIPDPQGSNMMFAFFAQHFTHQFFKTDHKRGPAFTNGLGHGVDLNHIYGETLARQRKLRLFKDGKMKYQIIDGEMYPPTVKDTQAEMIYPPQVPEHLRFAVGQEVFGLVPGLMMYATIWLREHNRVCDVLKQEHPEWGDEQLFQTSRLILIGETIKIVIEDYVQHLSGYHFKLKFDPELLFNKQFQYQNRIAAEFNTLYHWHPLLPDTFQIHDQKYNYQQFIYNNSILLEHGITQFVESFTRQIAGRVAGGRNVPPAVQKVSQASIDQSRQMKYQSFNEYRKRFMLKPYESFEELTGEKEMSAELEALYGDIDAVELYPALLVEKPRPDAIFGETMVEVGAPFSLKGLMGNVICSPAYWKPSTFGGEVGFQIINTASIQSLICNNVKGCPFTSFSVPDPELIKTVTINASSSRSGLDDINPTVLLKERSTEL
row,IC50,SMILES
1,> 100 µM,COc1ccc(Cn2nnc(O)c2C(=O)Nc2cccc(C(F)(F)F)c2)cc1OC
2,> 100 µM,O=C(Nc1cccc(C(F)(F)F)c1)c1c(O)nnn1Cc1ccc(OC(F)(F)F)cc1
3,> 100 µM,O=[N+]([O-])c1cccc(Nc2cccc3onc(O)c23)c1
4,> 100 µM,Oc1noc2cccc(Nc3cccc(S(F)(F)(F)(F)F)c3)c12
5,> 100 µM,Oc1noc2cccc(Nc3cc(C(F)(F)F)cc(C(F)(F)F)c3)c12
6,> 100 µM,Oc1noc2ccc(Nc3cccc(C(F)(F)F)c3)cc12
7,> 100 µM,Oc1noc2cccc(Nc3cccc(C(F)(F)F)c3)c12
